According to patent US20070015759A1, “Metasubstituted thiazolidinones, their manufacture and use as a drug” (priority 2004, published 2007):
pIC50: −log10 of the molar value.

How the values were obtained:
[1] = system: human MaTu breast tumor cells; assay: Proliferation assay (crystal violet staining); format: cell-based; conditions: 96 h, incubated for 4 days with test substance, read-out: Inhibition of tumor cell proliferation (MaTu) IC50
Method: Cultivated human MaTu breast tumor cells were spread on plates to a thickness of 5000 cells per measuring point in a 96-hole multititerplate in 200 μl of the appropriate growth medium. After 24 hours the cells of one plate (the zero-point plate) were stained with crystal violet (see below), while the medium of the other plates was replaced by fresh culture medium (200 μl), to which was added the test substances in various concentrations (0 μM and in the range of 0.01 to 30 μm; the final concentration of the dimethylsulfoxide solvent was 0.5%). The cells were incubated for 4 days in the presence of the test substances. The cell proliferation was determined by the staining of the cells with crystal violet. The cells were fixed by the addition of 20 μl per measuring point of an 11% glutaraldehyde solution for 15 minutes at room temperature. After the fixed cells were washed three times with water, the plates were dried at room temperature. The cells were stained by the addition of 100 μl per measuring point of a 0.1% crystal violet solution (pH set at pH3 through the addition of acetic acid). After the fixed cells were washed three times with water, the plates were dried at room temperature. The coloring was dissolved by the addition of 100 μl per measuring point of a 10% acetic acid solution. Extinction was determined photometrically at a wave length of 595 nm. The percentage change of the cell growth was calculated by normalizing the measured values at the extinction value of the zero-point plate (=0%) and the extinction of the untreated cells (0 μM) (=100%).

[2] = target: T1, Recombinant human Plk-1 (6×His) (Homo sapiens, UniProt P53350); assay: PLK enzyme assay (33P-γ-ATP incorporation into biotin casein, SPA beads); format: biochemical; conditions: 0.5 μM ATP, 0.7 μM casein, 90 minutes at room temperature, read-out: Inhibition PLK-1 IC50
T1 construct: 6xHis; made in house; host or cells: Hi5 insect cells, baculovirus
T1 sequence (P53350 whole entry): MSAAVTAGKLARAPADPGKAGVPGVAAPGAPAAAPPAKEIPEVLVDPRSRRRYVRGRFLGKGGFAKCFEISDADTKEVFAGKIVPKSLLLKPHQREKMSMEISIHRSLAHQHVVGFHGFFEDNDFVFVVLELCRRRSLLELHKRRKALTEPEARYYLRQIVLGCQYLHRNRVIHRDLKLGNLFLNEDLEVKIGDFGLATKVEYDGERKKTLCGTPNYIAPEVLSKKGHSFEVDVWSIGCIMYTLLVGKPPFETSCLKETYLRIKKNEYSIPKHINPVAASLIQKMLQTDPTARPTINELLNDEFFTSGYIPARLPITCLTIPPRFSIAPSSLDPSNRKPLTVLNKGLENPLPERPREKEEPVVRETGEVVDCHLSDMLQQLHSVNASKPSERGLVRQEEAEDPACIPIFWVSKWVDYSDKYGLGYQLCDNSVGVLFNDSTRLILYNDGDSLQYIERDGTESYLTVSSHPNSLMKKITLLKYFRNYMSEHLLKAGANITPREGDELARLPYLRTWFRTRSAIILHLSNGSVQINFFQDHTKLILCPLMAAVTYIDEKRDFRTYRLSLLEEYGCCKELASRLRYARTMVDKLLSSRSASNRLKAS
Method: Recombinant human Plk-1 (6×His) was purified from insect cells (Hi5) infected with a baculovirus.
10 ng (recombinant created, purified) PLK enzyme is incubated for 90 minutes at room temperature with biotin casein and 33P-γ-ATP as a sub-stratum in a volume of 15 μl in 384 well Greiner Small Volume Microtiterplates (final concentration in buffer: 660 ng/ ml PLK; 0.7 μM Casein, 0.5 μM ATP incl. 400 nCi/ml 33P-γ-ATP; 10 mM MgCl2, 1 mM MnCl2; 0.01% NP40; 1 mM DTT, Protease inhibitors; 0.1 mM Na2VO3 in 50 mM HEPES pH 7.5). At the end of the reaction a 5 μl stop solution (500 μM ATP; 500 mM EDTA; 1% triton ×100; 100 mg/ ml streptavidin coated SPA Beads in PBS) was added. After the microtiter plate is closed with foil, the beads are sedimented through centrifugation (10 min., 1500 rpm). The fixing of the 33P-γ-ATP in casein was set as a measure of the enzyme activity by β-Counting.
Test substances were introduced in various concentrations (0 μM, and in the range of 0.01-30 μM). The final concentration of the dimethylsulfoxide solvent in all concentrations amounted to 1.5%.

Structure (SMILES)	pIC50 [1]	pIC50 [2]
C#CCNC(=O)C(C#N)=c1sc(=CNc2ccc(OCCN(C)C)cc2)c(=O)n1CC [Comparison 307 from PCT/EP2004/ 012242, reference compound]	5.77	7.15
C#CCNC(=O)C(C#N)=c1sc(=CNc2ccc(C(=O)NCCN3CCCC3)c(NC(=O)C(C)(C)C)c2)c(=O)n1CC [Comparison 323 from PCT/EP2004/ 012242, reference compound]	5.60	6.85
CCn1c(=C(C#N)C(=O)NCC(F)(F)F)sc(=CNc2ccc(C(=O)NCCN3CCCC3)c(NC(=O)C(C)(C)C)c2)c1=O [Comparison 326 from PCT/EP2004/ 012242, reference compound]	5.80	7.14
CCn1c(=C(C#N)C(=O)NCC(F)F)sc(=CNc2ccc(OCCN(C)C)cc2)c1=O [Comparison 310 from PCT/EP2004/ 012242, reference compound]	5.25	7.13
CCn1c(=C(C#N)C(=O)NCC(F)(F)F)sc(=CNc2ccc(CCN3CCCC3)cc2)c1=O [Comparison 527 from PCT/EP2004/ 012242, reference compound]	5.55	

The remaining lines, values ahead:

pIC50 [1]	pIC50 [2]	Structure (SMILES)
6.08	7.70	CCn1c(=C(C#N)C(=O)NCC(F)(F)F)sc(=CNc2cccc(NC(=O)C(C)(C)C)n2)c1=O (mixture of isomers) [Example 41, 2-Cyano-2-[5-[1-[6-(2,2-dimethyl-propionylamino)-pyridin-2-ylamino]-meth-(E/Z)-ylidene]-3-ethyl-4-oxo-thiazolidin-(2-(E or Z))-ylidene]-N-(2,2,2-trifluoro-ethyl)-acetamide]
6.70	7.80	CCn1c(=C(C#N)C(=O)NCC(F)(F)F)sc(=CNc2cccc(CCN3CCCC3)c2)c1=O (mixture of isomers) [Example 30, 2-Cyano-2-[3-ethyl-4-oxo-5-[1-[3-(2-pyrrolidin-1-yl-ethyl)-phenylamino]-meth-(E/Z)-ylidene]-thiazolidin-(2-(E or Z))-ylidene]-N-(2,2,2-trifluoro-ethyl)-acetamide]
6.11	6.82	CCNC(=O)C(C#N)=c1sc(=CNc2cccc(NC(=O)CN3CCCC3)c2)c(=O)n1CC (mixture of isomers) [Example 55, 2-Cyano-N-ethyl-2-[3-ethyl-4-oxo-5-[1-[3-(2-pyrrolidin-1-yl-acetylamino)-phenylamino]-meth-(E/Z)-ylidene]-thiazolidin-(2-(E or Z))-ylidene]-acetamide]
6.23	7.66	C#CCNC(=O)C(C#N)=c1sc(=CNc2cccc(OCCN(C)C)c2)c(=O)n1CC (mixture of isomers) [Example 126, 2-Cyano-2-[5-[1-[3-(2-dimethylamino-ethoxy)-phenylamino]-meth-(E/Z)-ylidene]-3-ethyl-4-oxo-thiazolidin-(2Z or E)-ylidene]-N-prop-2-ynyl-acetamide]
6.19	7.00	C#CCNC(=O)C(C#N)=c1sc(=CNc2ccc(F)c(NC(=O)C(C)(C)C)c2)c(=O)n1CC (mixture of isomers) [Example 63, 2-Cyano-2-[5-[1-[3-(2,2-dimethyl-propionylamino)-4-fluoro-phenylamino]-meth-(E/Z)-ylidene]-3-ethyl-4-oxo-thiazolidin-(2-(E or Z))-ylidene]-N-prop-2-ynyl-acetamide]
6.48	7.62	CCn1c(=C(C#N)C(=O)NCC(F)F)sc(=CNc2cccc(OCCN(C)C)c2)c1=O (mixture of isomers) [Example 127, 2-Cyano-N-(2,2-difluoro-ethyl)-2-[5-[1-[3-(2-dimethylamino-ethoxy)-phenylamino]-meth-(E/Z)-ylidene]-3-ethyl-4-oxo-thiazolidin-(2-(E or Z))-ylidene]-acetamide]
